According to patent US10076576B2, “Minimally toxic prodrugs” (priority 2012, dated 2018):
Values joined by “and” are separate entries in the source; they are usually repeats but may differ in a detail not shown here. Equal entries are not always repeated.

What was measured:
[1] = biological target: T1, FAP (Homo sapiens, UniProt Q12884); test: Reactivation assay with purified FAP; format: biochemical; conditions: 3 h incubation at 37° C.
T1 sequence (Q12884 1-760): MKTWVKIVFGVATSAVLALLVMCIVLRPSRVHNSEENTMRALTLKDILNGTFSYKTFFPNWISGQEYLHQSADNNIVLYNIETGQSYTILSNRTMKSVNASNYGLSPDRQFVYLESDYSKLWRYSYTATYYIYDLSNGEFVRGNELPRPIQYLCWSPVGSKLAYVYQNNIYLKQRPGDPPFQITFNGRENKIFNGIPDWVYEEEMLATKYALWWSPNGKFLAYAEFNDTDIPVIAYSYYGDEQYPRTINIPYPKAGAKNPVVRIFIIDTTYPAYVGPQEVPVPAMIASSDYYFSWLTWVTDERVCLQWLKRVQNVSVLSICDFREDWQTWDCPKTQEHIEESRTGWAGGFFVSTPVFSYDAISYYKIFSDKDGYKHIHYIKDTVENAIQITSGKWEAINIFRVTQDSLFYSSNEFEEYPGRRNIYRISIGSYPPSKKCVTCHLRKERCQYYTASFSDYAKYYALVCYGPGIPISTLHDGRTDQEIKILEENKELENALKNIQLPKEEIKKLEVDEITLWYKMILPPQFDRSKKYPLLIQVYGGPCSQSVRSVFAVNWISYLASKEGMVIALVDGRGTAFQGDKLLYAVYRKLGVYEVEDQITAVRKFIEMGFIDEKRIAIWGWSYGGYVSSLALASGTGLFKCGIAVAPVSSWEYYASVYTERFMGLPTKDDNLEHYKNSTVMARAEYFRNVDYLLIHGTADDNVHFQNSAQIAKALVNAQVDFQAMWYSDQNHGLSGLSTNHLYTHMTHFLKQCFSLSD
Experimental: (§1) TOP (recombinant human thimet oligopeptidase, R&D systems, Ref 3439-ZN) was diluted at 10 nM in a solution of 50 mM Tris-HCl pH 7.4/0.5M NaCl/0.1M DTT. CD26 and FAP were diluted at 1 μg/mL in a Tris-HCl pH 7.5 buffer. Reactions were initiated by addition of 50 μM of each compound to enzymes solutions (1 V enzyme solution+1 V 100 μM drug solution). Samples were incubated for 0, 1, or 3 hours at 37° C. in a water bath in the presence of purified enzymes. Fifty μL of sample were collected at each time point and processed as described above for human plasma. Activation of Suc-βALAL-dox was tested in parallel as a reference.

[2] = biological target: CD26 (Homo sapiens, UniProt P27487); test: Reactivation assay with purified CD26; format: biochemical; conditions: 3 h incubation at 37° C.
Sequence of CD26 (P27487 whole entry): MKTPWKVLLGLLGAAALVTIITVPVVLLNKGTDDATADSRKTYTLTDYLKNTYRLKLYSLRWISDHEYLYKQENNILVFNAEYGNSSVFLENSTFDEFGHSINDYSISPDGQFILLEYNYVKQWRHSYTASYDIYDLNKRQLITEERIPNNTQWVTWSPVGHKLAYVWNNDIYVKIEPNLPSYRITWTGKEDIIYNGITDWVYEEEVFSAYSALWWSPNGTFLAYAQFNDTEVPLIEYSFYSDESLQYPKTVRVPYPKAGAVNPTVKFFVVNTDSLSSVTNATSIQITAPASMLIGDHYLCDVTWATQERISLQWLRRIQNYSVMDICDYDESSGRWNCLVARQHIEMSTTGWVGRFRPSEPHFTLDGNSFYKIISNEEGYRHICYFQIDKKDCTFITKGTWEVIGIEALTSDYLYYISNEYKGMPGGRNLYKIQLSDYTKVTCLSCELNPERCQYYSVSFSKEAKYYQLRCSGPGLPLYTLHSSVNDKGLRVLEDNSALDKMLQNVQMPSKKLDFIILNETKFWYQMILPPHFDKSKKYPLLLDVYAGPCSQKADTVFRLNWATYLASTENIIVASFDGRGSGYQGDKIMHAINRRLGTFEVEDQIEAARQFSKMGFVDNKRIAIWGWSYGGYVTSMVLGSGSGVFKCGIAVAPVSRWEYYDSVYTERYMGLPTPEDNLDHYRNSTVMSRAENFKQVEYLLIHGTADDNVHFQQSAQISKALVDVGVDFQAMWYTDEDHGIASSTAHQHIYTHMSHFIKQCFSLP
Experimental: as §1

[3] = test system: tumor cell lines; conditions: cited from earlier work
[4] = Stability in citrated human plasma; conditions: 5 hours incubation at 37° C. in citrated human plasma (pH7), 50 μM
Experimental: The drug conjugates (50 μM) were mixed with human plasma and incubated for 5 hours at 37° C. in a water bath. […] Supernatant was collected.

[5] = biological target: T2, TOP (recombinant human thimet oligopeptidase) (Homo sapiens, UniProt P52888); test: Reactivation assay with purified TOP; format: biochemical; conditions: 3 h at 37° C.; for % Metabolites released after 3 h (TOP 5 nM) / TOP 5 nM (cleavage +/−): 50 μM compound
T2 construct: purchased R&D systems 3439-ZN
T2 sequence (P52888 whole entry): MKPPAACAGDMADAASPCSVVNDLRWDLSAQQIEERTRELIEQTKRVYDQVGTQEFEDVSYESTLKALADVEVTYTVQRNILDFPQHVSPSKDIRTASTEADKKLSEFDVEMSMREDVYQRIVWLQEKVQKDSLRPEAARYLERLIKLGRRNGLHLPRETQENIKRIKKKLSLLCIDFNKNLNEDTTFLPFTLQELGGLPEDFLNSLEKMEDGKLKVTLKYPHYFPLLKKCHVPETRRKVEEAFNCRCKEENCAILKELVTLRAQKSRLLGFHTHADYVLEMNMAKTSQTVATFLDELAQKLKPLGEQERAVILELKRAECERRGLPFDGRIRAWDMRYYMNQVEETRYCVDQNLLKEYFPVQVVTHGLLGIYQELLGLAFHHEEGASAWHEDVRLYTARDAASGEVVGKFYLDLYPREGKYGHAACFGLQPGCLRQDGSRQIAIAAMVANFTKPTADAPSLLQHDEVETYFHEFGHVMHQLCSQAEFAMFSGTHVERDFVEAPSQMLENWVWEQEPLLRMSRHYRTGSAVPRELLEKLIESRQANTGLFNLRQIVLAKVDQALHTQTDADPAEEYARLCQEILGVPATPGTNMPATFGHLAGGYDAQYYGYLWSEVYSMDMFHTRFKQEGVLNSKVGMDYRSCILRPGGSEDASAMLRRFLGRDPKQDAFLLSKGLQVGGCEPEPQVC
Experimental: as §1

[6] = test system: LS-174T tumor cell secreted peptidases; test: Reactivation assay in LS174T tumor cell conditioned medium; format: biochemical, human; conditions: for activation by tumor cell secreted enzymes (in words): LS174T tumor cell conditioned medium
Experimental: Sub-confluent cultures of LS-174T tumor cells were washed twice with a saline phosphate buffer solution, and fresh culture medium (DMEM-F12 without phenol red) containing 0.02% bovine serum albumin is added (100 μl/cm^2). After 24 hours incubation, the conditioned medium is collected, centrifuged for 10 minutes at 300 g, buffered with 1 M Tris-HCl, pH 7.4 (1 volume of buffer+19 volumes of medium) and concentrated 20 times by […] (cutoff threshold of 10 kDa).
Drug compounds (50 μM) were incubated for 0, 1, 3 or 5 hours at 37° C. in the presence of freshly prepared LS174T tumor cell conditioned medium. Fifty μL of sample were collected at each time point and processed as described above for human plasma.

[7] = Stability in citrated human blood; conditions: 5 hours incubation at 37° C. in citrated human blood, 50 μM
[8] = biological target: T3, CD10 (recombinant human neprilysin) (Homo sapiens, UniProt P08473); test: Reactivation assay with purified CD10; format: biochemical; conditions: 3 h at 37° C.; for % Metabolites released after 3 h (CD10 10 nM) / CD10 10 nM (cleavage +/−): 50 μM compound
T3 construct: purchased R&D systems 1182-ZN
T3 sequence (P08473 52-750 limits assumed): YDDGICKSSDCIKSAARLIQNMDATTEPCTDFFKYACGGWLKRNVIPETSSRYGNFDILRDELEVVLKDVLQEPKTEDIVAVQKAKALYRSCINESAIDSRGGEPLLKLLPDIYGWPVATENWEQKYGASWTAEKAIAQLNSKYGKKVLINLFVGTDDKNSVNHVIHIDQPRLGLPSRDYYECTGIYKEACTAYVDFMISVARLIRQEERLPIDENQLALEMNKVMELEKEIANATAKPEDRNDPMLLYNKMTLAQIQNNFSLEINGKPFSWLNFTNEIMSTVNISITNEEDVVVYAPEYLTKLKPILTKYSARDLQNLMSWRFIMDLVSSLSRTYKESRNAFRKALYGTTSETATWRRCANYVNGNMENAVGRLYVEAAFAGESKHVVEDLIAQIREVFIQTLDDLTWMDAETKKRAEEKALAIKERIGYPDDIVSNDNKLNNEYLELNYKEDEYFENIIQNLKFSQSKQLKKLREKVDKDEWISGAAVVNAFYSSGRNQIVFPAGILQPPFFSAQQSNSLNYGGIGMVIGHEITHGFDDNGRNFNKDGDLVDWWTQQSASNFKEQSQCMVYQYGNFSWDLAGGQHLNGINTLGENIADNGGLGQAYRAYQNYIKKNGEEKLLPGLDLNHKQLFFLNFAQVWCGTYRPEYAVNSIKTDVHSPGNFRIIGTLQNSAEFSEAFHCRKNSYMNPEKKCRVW

[9] = In vivo toxicity after single iv bolus injection (body weight); set-up: species or system OF-1 mice
Experimental: FIG. 1. Effect of PhAc-peptide-Dox conjugates on the body weight of OF-1 normal mice (n=4). […] Results represent the mean body weight evolution.
The in vivo toxicity was evaluated by monitoring body weight.

[10] = biological target: dihydrofolate reductase (DHFR) (Homo sapiens, UniProt P00374); conditions: cited from earlier work
Sequence of dihydrofolate reductase (DHFR) (P00374 whole entry, species assumed): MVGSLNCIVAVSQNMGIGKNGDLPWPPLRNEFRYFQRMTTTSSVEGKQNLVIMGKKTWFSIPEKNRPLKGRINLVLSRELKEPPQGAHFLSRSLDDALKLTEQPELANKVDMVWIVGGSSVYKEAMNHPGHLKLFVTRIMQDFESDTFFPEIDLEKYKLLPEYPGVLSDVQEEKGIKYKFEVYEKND

| Molecule | % Metabolites released after 3 h (TOP 5 nM) [5] | % Metabolites released after 5 h (LS174T CM20xcc) ([6]; 5 h at 37° C., 50 μM compound) | activation by tumor cell secreted enzymes (in words) [6] | cleavage by CD10 (in words) [8] | % Metabolites released after 3 h (CD10 10 nM) [8] | also measured |
| --- | --- | --- | --- | --- | --- | --- |
| COc1cccc2c1C(=O)c1c(O)c3c(c(O)c1C2=O)C[C@@](O)(C(=O)CO)C[C@@H]3O[C@H]1C[C@H](NC(=O)[C@@H]2CCCN2C(=O)CN)[C@H](O)[C@H](C)O1 [GP-Dox, NH2-Gly-Pro-Doxorubicin] | – | – | – | – | – | conversion to Dox by FAP [1]: 62%; conversion to Dox by CD26 [2]: 97% |
| COc1cc2cc(c1Cl)N(C)C(=O)C[C@H](OC(=O)[C@H](C)N(C)C(C)=O)[C@]1(C)O[C@H]1[C@H](C)[C@@H]1C[C@@](O)(NC(=O)O1)[C@H](OC)/C=C/C=C(\C)C2 [Maytansine] | – | – | – | – | – | fold higher cytotoxicity than the Vinca alkaloids [3]: about 100 fold; fold higher toxicity than doxorubicin [3]: about 1000 fold |
| COc1cccc2c1C(=O)c1c(O)c3c(c(O)c1C2=O)CC(O)(C(=O)CO)CC3OC1CC(NC(=O)C(Cc2ccccc2)NC(=O)C(C)NC(=O)C(CC(C)C)NC(=O)C(C)NC(=O)CP(=O)(O)O)C(O)C(C)O1 (stereo not shown) [PhAc-ALAF-Dox, PhAc-ALAF-doxorubicin] | <5% | 32 ± 15% | activated into F-Dox | moderately cleaved | 24 ± 5% | % metabolites released: Dox [4]: 0%; % metabolites released: F-Dox [4]: 2%; total % metabolites [4]: 2%; TOP 5 nM (cleavage +/−) [5]: −* (*less than 5% of metabolites detected); % metabolites released: Dox [7]: 5%; % metabolites released: F-Dox [7]: 5%; total % metabolites [7]: 10% |
| COc1cccc2c1C(=O)c1c(O)c3c(c(O)c1C2=O)CC(O)(C(=O)CO)CC3OC1CC(NC(=O)C(CC(C)C)NC(=O)C(C)NC(=O)C(CC(C)C)NC(=O)C(C)NC(=O)CP(=O)(O)O)C(O)C(C)O1 (stereo not shown) [PhAc-ALAL-Dox, PhAc-ALAL-doxorubicin] | 44% and 44 ± 6% | 65 ± 19% | activated | not efficiently cleaved | – | % metabolites released: AL-Dox [4]: 0%; % metabolites released: Dox [4]: <1%; % metabolites released: L-dox [4]: 2%; total % metabolites [4]: 2%; body weight loss (in words) ([9]; 80 μmol/kg single iv): No significant body weight loss; toxicity (in words) ([9]; 160 μmol/kg single iv): high toxicity; % metabolites released: AL-Dox [7]: 0%; % metabolites released: Dox [7]: 9%; % metabolites released: L-dox [7]: 6%; total % metabolites [7]: 15%; CD10 10 nM (cleavage +/−) [8]: −* (*less than 5% of metabolites detected) |
| COc1cccc2c1C(=O)c1c(O)c3c(c(O)c1C2=O)CC(O)(C(=O)CO)CC3OC1CC(NC(=O)C(Cc2ccccc2)NC(=O)C2CCCN2C(=O)C(CC(C)C)NC(=O)C(C)NC(=O)CP(=O)(O)O)C(O)C(C)O1 (stereo not shown) [PhAc-ALPF-Dox, PhAc-ALPF-doxorubicin] | <5% | 11 ± 6% | activated into F-Dox | – | 0% | % metabolites released: Dox [4]: 0%; % metabolites released: F-Dox [4]: 0%; total % metabolites [4]: 0%; TOP 5 nM (cleavage +/−) [5]: −* (*less than 5% of metabolites detected); % metabolites released: Dox [7]: 4%; % metabolites released: F-Dox [7]: 1%; total % metabolites [7]: 5% |
| Methotrexate | – | – | – | – | – | affinity for DHFR relative to folate [10]: ~1000 fold |
| PhAc-AIGP-doxorubicin | <5% | 3 ± 3% | not activated | – | 18% and 18 ± 3% | cleavage by TOP (in words) [5]: not cleaved; TOP 5 nM (cleavage +/−) [5]: −* (*less than 5% of metabolites detected); LS174T CM20xcc (activation +/−) ([6]; 5 h at 37° C., conditioned medium concentrated 20 times, 50 μM compound): −* (*less than 5% of metabolites detected) |
| PhAc-DLGP-doxorubicin | 0% | 0% | not activated | not or very slightly activated | 0% | cleavage by TOP (in words) [5]: not cleaved |
| PhAc-GPGP-doxorubicin | 0% | 0% | not activated | not or very slightly activated | 0% | cleavage by TOP (in words) [5]: not cleaved |
| PhAc-KLGP-doxorubicin | 31% and 31 ± 5% | 39 ± 13% | mainly GP-Dox is detected | not or very slightly activated | <5% | CD10 10 nM (cleavage +/−) [8]: −* (*less than 5% of metabolites detected) |
| PhAc-TSGP-doxorubicin | 38% and 38 ± 2% | 35 ± 18% | mainly GP-Dox is detected | not or very slightly activated | 0% | – |
